This is an account of results in paper PMC6222871, “Suppression of Hepatitis C Virus Genome Replication and Particle Production by a Novel Diacylglycerol Acyltransferases Inhibitor” (Molecules : A Journal of Synthetic Chemistry and Natural …, 2018).

One data set has as its system recombinant DGAT-1. Also noted: method as in PMID 23242135. The note with it: recombinant DGAT-1, [14C] oleoyl-CoA as acyl-donor; cited from earlier work.
Data set [1] deals with HCV genotype 2a (Huh7.5-J6/JFH1). Nature of the data set: HCV particle production: infectivity of supernatant on naive Huh7.5 cells by real-time RT-PCR. The class given is cell-based, hepatitis C virus. The note with it: Hepatitis C virus, read-out: EC50 on HCV particle production.
Procedure: A922500, a commercially available DGAT-1-specific inhibitor was used as a positive control [10]. […] Therefore, we decided to examine effects of these twelve DGAT inhibitors on HCV particle production as well as RNA genome replication in parallel. For this purpose, we transfected Huh7.5 cells with in vitro-transcribed genotype 2a HCV RNAs (Huh7.5-J6/JFH1) [16] and treated them with each DGAT inhibitor for 6 and 72 h at 10 μM. HCV genome replication as well as host GAPDH RNA levels was quantitated by a real-time RT-PCR analysis. For assessment of HCV particle production, we harvested and filtered the supernatant from Huh7.5-J6/JFH1 cells treated with DGAT inhibitors and incubated the supernatant with naïve huh7.5 cells for 72 h. Then, infectivity was measured by a real-time RT-PCR analysis.
Huh7.5-J6/JFH-1 cells were seeded into 6-well plates at a density of 3 × 10^5 cells per well with DMEM containing 10% FBS. […] Total RNAs were extracted from treated cells and virus-containing media were harvested at each time point. Naïve Huh7.5 cells were infected with these virus-containing media after concentration with centricons.
For data set [2], the system named is Huh7.5 cells. Kind of data set: visualization of intracellular LD by BODIPY in Huh7.5 cells. In kind it is cell-based. The note with it: 20 μM, 72 h. As for the experimental part: Huh7.5 cells were incubated in a 24-well plate on top of coverslip in the presence of either DMSO, 8 μM of 10j, or 20 μM of A922500 for 72 h. Then, Huh7.5 cells were fixed by using 4% paraformaldehyde for 15 min and stained with 0.001% BODIPY 493/503 D3922 (Invitrogen, Carlsbad, CA, USA) for 10 min. The coverslips were mounted onto slides using Prolong Gold anti-fade reagent with DAPI (Invitrogen, Carlsbad, CA, USA) Fluorescence were examined and captured by Nikon confocal laser scanning microscopic system. LD content was quantified using the ImageJ program.

Data set [3] relates to luciferase-linked genotype 2a HCV RNAs. Nature of the data set: microbe, parasite or virus in culture. The note with it: Hepatitis C virus, Huh7.5, luciferase-linked genotype 2a HCV RNA in Huh7.5 cells; read-out: EC50 (HCV replication). The class given is cell-based, hepatitis C virus. As for the experimental part: (§1) To order to study impacts of DGAT inhibitors on HCV genome replication independently of the particle production, we decided to examine effects of these twelve DGAT inhibitors on the levels of viral RNA genome and cell viability in parallel. […] Then, we treated them with an increasing concentration of each DGAT inhibitor. Then, luciferase and MTT-based cell viability assays were performed to determine EC50 and CC50 (cytotoxic concentration required to kill 50% of treated cells) values, respectively.
(§2) Cell viability was measured with EZ-CYTOX (10% tetrazolium salt; Dogen, Gyeonggi-do, Korea) as described previously. Anti-HCV replication analysis using a luciferase assay was conducted as previously described.

The nature of data set [4]: MTT-based cell viability assay (EZ-CYTOX). The note with it: human. How it is done: as §1, §2
Another data set has as its system JFH1-NS5A-GFP cells. Nature of the data set: NS5A-GFP and Oil Red O imaging in JFH1-NS5A-GFP cells. In kind it is cell-based, hepatitis C virus. As for the experimental part:
Based on previous results, we noticed that EC50 values required for inhibition of the HCV genome replication by 10j were around 1–2 μM ranges (Figure 2 and Table 3). However, IC50 value required for inhibition of the enzymatic DGAT activities in vitro by 10j was reported to be higher than 5 μM (Table 2 and Figure 6E). Based on these observations, we hypothesized that inhibition of DGATs by 10j may not play a direct role in suppression of the viral genome replication. To test this hypothesis, we decided to study effects of 10j on DGAT and the viral genome replication in a simultaneous manner. […] Then, the viral NS3 protein and LDs were visualized by using an anti-NS3 antibody and BODIPY, respectively. […] Significant reduction of LD was only seen after treatment of 10j higher than 5 μM. In order to confirm this observation, we decided to utilize another HCV-positive cell—JFH1-NS5A-GFP cells—which were infected with infectious HCV genotype 2a particles with a visually tractable NS5A due to the presence of in-frame-fused GFP protein with NS5A. TGs of these cells were stained with ORO for visualization in parallel. […]
Immunofluorescence analysis of Huh7.5-J6/JFH1 or Huh7.5-JFH1-5A-GFP cells in the presence of 10j was conducted as previously described. Fluorescence were examined and captured by Nikon confocal laser scanning microscopic system. LD content was quantified using the ImageJ program.

Data set [5] relates to Huh7.5 cells. Kind of data set: TG quantification assay in Huh7.5 cells. In kind it is cell-based. The note with it: 20 μM. As for the experimental part:
Cells were washed with cold PBS, suspended, and homogenized in 1 mL of 5% NP-40/ddH2O solution. Then, homogenized cells were slowly heated to 90 °C for 5 min or until the NP-40 becomes cloudy, then cooled down to room temperature. Previous step was repeated to solubilize all TG. Cells were centrifuged for 2 min at top speed using a microcentrifuge to remove any insoluble material. Samples were diluted 10-fold with ddH2O before proceeding with the assay. […] Samples were added with 50 μL of reaction mix into each well and incubated at room temperature for 60 min while protected from light. Fluorescence was measured by using a fluorometric reader with Ex/Em = 535/590 nm. The amount of TG from standard sample was calculated using the following equation: Ts=Corrected absorbance−(y−intercept)/slope The amount of intracellular TG was calculated using the following equation: Concentration=Ts/Sv*D where the Ts is the amount of TG from standard curve and Sv is the volume of sample added to sample wells and D is the sample dilution factor.

Data set [6] concerns HCV genotype 2a (Huh7.5-J6/JFH1). Kind of data set: microbe, parasite or virus in culture. The note with it: Hepatitis C virus, read-out: EC50 on HCV genome replication. The source says: We previously synthesized and characterized twelve DGAT inhibitors with a different DGAT specificity. […] A922500, a commercially available DGAT-1-specific inhibitor was used as a positive control. In spite of a wealth of knowledge on an essential role of DGAT-1 in the HCV particle assembly and production, less attention has been paid to potential functions of DGATs in other steps of the viral life cycle. Therefore, we decided to examine effects of these twelve DGAT inhibitors on HCV particle production as well as RNA genome replication in parallel. For this purpose, we transfected Huh7.5 cells with in vitro-transcribed genotype 2a HCV RNAs (Huh7.5-J6/JFH1) and treated them with each DGAT inhibitor for 6 and 72 h at 10 μM. HCV genome replication as well as host GAPDH RNA levels was quantitated by a real-time RT-PCR analysis. For assessment of HCV particle production, we harvested and filtered the supernatant from Huh7.5-J6/JFH1 cells treated with DGAT inhibitors and incubated the supernatant with naïve huh7.5 cells for 72 h. Then, infectivity was measured by a real-time RT-PCR analysis.
Quantitative real-time RT-PCR analysis to measure levels of HCV RNA and GAPDH was conducted as previously described. The cDNA synthesis and reverse transcription of miR-122 were performed by using Taqman quantitative RT-PCR (qRT-PCR) analysis. Taqmanq RT-PCR components including TaqMan miR122 probe, endogenous control U6 probe, TaqMan® MicroRNA reverse transcription Kit and TaqMan® universal master mix II were purchased from Thermo Fisher Scientific (Waltham, MA, USA)
Huh7.5-J6/JFH-1 cells were seeded into 6-well plates at a density of 3 × 10^5 cells per well with DMEM containing 10% FBS. After 24 h, they are incubated with either DMSO, increasing concentrations of 10j for 3, 6, 12, 24, 48, and 72 h, or increasing concentrations of A922500 for 6, 12, 24, 48, and 72 h. Total RNAs were extracted from treated cells and virus-containing media were harvested at each time point. Naïve Huh7.5 cells were infected with these virus-containing media after concentration with centricons. Total RNAs were extracted from Huh7.5 cells infected with virus-containing media. qRT-PCR analysis was performed to measure effect of 10j on HCV replication and virus particle production.

The subject of a further data set is HCV. Also noted: method as in PMID 27788579. The note with it: read-out: EC50 in vitro; cited from earlier work.

pEC50, pIC50: −log10 of the molar value. Bounds are passed on as bounds.

Turning to `O=C(Nc1ccccc1)Nc1ccc(-c2ccc(C(=O)[C@@H]3CCC[C@H]3C(=O)O)cc2)cc1` [A922500, reference compound], the pIC50 in the data set with recombinant DGAT-1 is 8.15. The negative-log EC50 (pEC50) in data set [1] (Huh7.5, 6 h) was 4.46; in data set [1] (Huh7.5, 12 h), 4.12; in data set [1] (Huh7.5, 24 h), 4.16; in data set [1] (Huh7.5, 48 h) it was 4.37; in [1] (Huh7.5, 72 h), 4.66; in data set [3], 4.29. The pEC50 in data set [6] (6 h), in data set [6] (12 h), in [6] (24 h), in [6] (48 h) and in data set [6] (72 h) was less than 4.00 each time. Further, the “increase in the level of LDs (BODIPY)” value in the data set with Huh7.5 cells [2] came to 45%. The compound also yielded a CC50 in data set [4] of 71.9 µM. The “abundance of GFP-tagged NS5A proteins or ORO-stained LDs” value in the data set with JFH1-NS5A-GFP cells is on record as “failed to induce any significant changes”. Besides, the “suppression of endogenous level of TG” value in the data set with Huh7.5 cells [5] is 25%.

In the case of `O=C(O)C[C@H]1CC[C@H](c2ccc(-c3ccc(Nc4ccc(C(F)(F)F)nc4)cn3)cc2)CC1` [pradigastat], in the data set with HCV, the pEC50 was 4.52.
